pIC50: −log10 of the molar value. Where a name gives a salt, the structure may show the parent alone.
What was measured:
[1] = molecular target: FAAH (Homo sapiens (Human), UniProt O00519); assay: Assay Method 1: FAAH assay, T84 cell homogenate, 3H-anandamide hydrolysis; format: biochemical; settings: 3H-AEA tracer 200 nM, 1 h at rt
Outline: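 Homogenate of human T84 cells in pH 9 Tris/EDTA buffer with 0.02% Triton X-100 was incubated with compound and 200 nM final 3H-anandamide for 1 h at rt. Released [3H]ethanolamine was separated from substrate through activated charcoal by centrifugation and quantified by scintillation counting.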

[2] = molecular target: rat FAAH (Rattus norvegicus (Rat), UniProt P97612); assay: Assay Method 3: FAAH assay, cells transfected with rat FAAH; format: biochemical; settings: T84 or rat FAAH-transfected SK-N-MC cell homogenate, 3H-AEA tracer 80 nM, 1 h at rt
rat FAAH, sequence (P97612 whole entry): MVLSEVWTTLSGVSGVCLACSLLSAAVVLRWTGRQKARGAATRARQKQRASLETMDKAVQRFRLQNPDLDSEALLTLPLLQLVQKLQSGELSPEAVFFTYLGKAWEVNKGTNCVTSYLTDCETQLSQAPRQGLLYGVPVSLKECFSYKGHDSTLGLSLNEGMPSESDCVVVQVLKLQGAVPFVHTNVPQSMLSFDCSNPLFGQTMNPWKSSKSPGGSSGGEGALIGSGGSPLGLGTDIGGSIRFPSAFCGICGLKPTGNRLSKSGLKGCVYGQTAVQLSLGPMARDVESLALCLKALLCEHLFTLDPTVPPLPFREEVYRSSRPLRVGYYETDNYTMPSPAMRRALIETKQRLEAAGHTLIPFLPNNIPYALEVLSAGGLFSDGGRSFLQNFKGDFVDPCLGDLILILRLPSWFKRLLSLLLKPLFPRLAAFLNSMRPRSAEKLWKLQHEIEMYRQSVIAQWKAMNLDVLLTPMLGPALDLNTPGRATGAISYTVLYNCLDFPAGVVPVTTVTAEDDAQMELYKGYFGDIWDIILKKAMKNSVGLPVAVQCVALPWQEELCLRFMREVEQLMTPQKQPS
Method: Assay Method 3 A. Transfection of Cells with Rat FAAH
A 10-cm tissue culture dish with a confluent monolayer of SK-N-MC cells was split 2 days (d) prior to transfection. Using sterile technique, the media was removed and the cells were detached from the dish by the addition of trypsin. One fifth of the cells were then placed onto a new 10-cm dish. Cells were grown in a 37° C. incubator with 5% CO2 in Minimal Essential Media Eagle with 10% Fetal Bovine Serum. After 2 d, cells were approximately 80% confluent. These cells were removed from the dish with trypsin and pelleted in a clinical centrifuge. The pellet was re-suspended in 400 μL complete media and transferred to an electroporation cuvette with a 0.4 cm gap between the electrodes. Supercoiled rat FAAH cDNA (1 μg) was added to the cells and mixed. The voltage for the electroporation was set at 0.25 kV, and the capacitance was set at 960 μF. After electroporation, the cells were diluted into complete media (10 mL) and plated onto four 10-cm dishes. Because of the variability in the efficiency of electroporation, four different concentrations of cells were plated. The ratios used were 1:20, 1:10, and 1:5, with the remainder of the cells being added to the fourth dish. The cells were allowed to recover for 24 h before adding the selection media (complete media with 600 μg/mL G418). After 10 d, dishes were analyzed for surviving colonies of cells. Dishes with well-isolated colonies were used. Cells from individual colonies were isolated and tested.
T84 frozen cell pellets or transfected SK-N-MC cells (contents of 1×15 cm culture dishes) were homogenized in 50 mL of FAAH assay buffer (125 mM Tris, 1 mM EDTA, 0.2% Glycerol, 0.02% Triton X-100, 0.4 mM Hepes, pH 9). The assay mixture consisted of 50 μL of the cell homogenate, 10 μL of the test compound, and 40 μL of anandamide [1-^3H-ethanolamine] (^3H-AEA, Perkin-Elmer, 10.3 Ci/mmol), which was added last, for a final tracer concentration of 80 nM. The reaction mixture was incubated at rt for 1 h. During the incubation, 96-well Multiscreen filter plates (catalog number MAFCNOB50; Millipore, Bedford, Mass., USA) were loaded with 25 μL of activated charcoal (Multiscreen column loader, catalog number MACL09625, Millipore) and washed once with 100 μL of MeOH. Also during the incubation, 96-well DYNEX MicroLite plates (catalog number NL510410) were loaded with 100 μL of MicroScint40 (catalog number 6013641, Packard Bioscience, Meriden, Conn., USA). After the 1 h incubation, 60 μL of the reaction mixture were transferred to the charcoal plates, which were then assembled on top of the DYNEX plates using Centrifuge Alignment Frames (catalog number MACF09604, Millipore). The unbound labeled ethanolamine was centrifuged through to the bottom plate (5 min at 2000 rpm), which was preloaded with the scintillant, as described above. The plates were sealed and left at rt for 1 h before counting on a Hewlett Packard TopCount.

FAAH, sequence (O00519 whole entry): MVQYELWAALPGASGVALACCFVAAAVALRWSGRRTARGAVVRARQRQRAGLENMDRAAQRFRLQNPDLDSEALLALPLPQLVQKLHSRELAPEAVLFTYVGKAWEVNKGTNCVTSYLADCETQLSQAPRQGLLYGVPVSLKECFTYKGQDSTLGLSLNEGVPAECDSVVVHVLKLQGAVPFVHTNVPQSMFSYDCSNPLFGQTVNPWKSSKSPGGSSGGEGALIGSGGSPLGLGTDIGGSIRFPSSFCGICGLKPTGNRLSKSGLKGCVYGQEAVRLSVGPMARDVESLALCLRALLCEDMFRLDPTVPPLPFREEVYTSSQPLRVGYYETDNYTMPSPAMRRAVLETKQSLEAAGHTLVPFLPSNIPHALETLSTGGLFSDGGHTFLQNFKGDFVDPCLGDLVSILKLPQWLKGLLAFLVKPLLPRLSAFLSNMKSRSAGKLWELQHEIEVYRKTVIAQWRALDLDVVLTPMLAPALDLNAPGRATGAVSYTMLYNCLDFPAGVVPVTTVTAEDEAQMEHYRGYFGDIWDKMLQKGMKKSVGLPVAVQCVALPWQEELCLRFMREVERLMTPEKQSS

| pIC50 [1] | SMILES | other results |
| --- | --- | --- |
| 7.10 | COc1cc(Br)cc(CN2CCN(C(=O)Nc3ccccc3)CC2)c1O [Example 26, 4-(5-Bromo-2-hydroxy-3-methoxy-benzyl)-piperazine-1-carboxylic acid phenylamide] | pIC50 [2]: 6.89 |
| 7.27 | O=C(Nc1ccc(F)cc1)N1CCN(Cc2ccc3ccccc3c2)CC1 [Example 57, 4-Naphthalen-2-ylmethyl-piperazine-1-carboxylic acid (4-fluoro-phenyl)-amide] | pIC50 [2]: 6.37 |
| 6.46 | O=C(Nc1ccccc1)N1CCN(Cc2ccc3c(c2)OCO3)CC1 [Example B, 4-Benzo[1,3]dioxol-5-ylmethyl-piperazine-1-carboxylic acid phenylamide, reference compound] | pIC50 [2]: 5.10 |
| 6.60 | O=C(Nc1ccc(F)cc1F)N1CCN(Cc2cnc3ccccc3c2)CC1 [Example 111, 4-Quinolin-3-ylmethyl-piperazine-1-carboxylic acid (2,4-difluoro-phenyl)-amide] | pIC50 [2]: 5.70 |
|  | O=C(Nc1ccccc1)N1CCN(Cc2ccc(Br)c(Br)c2)CC1 [Example 162, 4-(3,4-Dibromo-benzyl)-piperazine-1-carboxylic acid phenylamide hydrochloride] | pIC50 ([1]; hydrochloride): 7.42; pIC50 ([2]; hydrochloride): 6.57 |
| 5.89 | Cc1ccc(CN2CCN(C(=O)Nc3ccccc3)CC2)cc1 [Example E, 4-(4-Methyl-benzyl)-piperazine-1-carboxylic acid phenylamide, reference compound] |  |
| 6.27 | COc1ccccc1NC(=O)N1CCN(Cc2cnc3ccccc3c2)CC1 [Example 102, 4-Quinolin-3-ylmethyl-piperazine-1-carboxylic acid (2-methoxy-phenyl)-amide] |  |
| 7.59 | Cn1c(CN2CCN(C(=O)Nc3ccccc3)CC2)cc2ccccc21 [Example 22, 4-(1-Methyl-1H-indol-2-ylmethyl)-piperazine-1-carboxylic acid phenylamide] | pIC50 [2]: 5.85 |
| 6.42 | O=C(Nc1ccccc1)N1CCN(Cc2cccc(OS(=O)(=O)c3ccc(Cl)cc3)c2)CC1 [Example 139, 4-Chloro-benzenesulfonic acid 3-(4-phenylcarbamoyl-piperazin-1-ylmethyl)-phenyl ester] |  |
| 6.70 | O=C(Nc1ccccc1)N1CCN(Cc2csc3ccccc23)CC1 [Example 31, 4-Benzo[b]thiophen-3-ylmethyl-piperazine-1-carboxylic acid phenylamide] |  |
| 5.80 | O=C(Nc1ccc(F)cc1)N1CCN(Cc2ccc3c(c2)OCO3)CC1 [Example G, 4-Benzo[1,3]dioxol-5-ylmethyl-piperazine-1-carboxylic acid (4-fluoro-phenyl)-amide, reference compound] | pIC50 [2]: 5.00 |
| 7.64 | O=C(Nc1ccccc1)N1CCN(Cc2cnc3ccc(Cl)cc3c2)CC1 [Example 69, 4-(6-Chloro-quinolin-3-ylmethyl)-piperazine-1-carboxylic acid phenylamide] |  |
| 7.70 | O=C(Nc1ccccc1)N1CCN(Cc2cccc(Oc3ccc(Cl)c(Cl)c3)c2)CC1 [Example 61, 4-[3-(3,4-Dichloro-phenoxy)-benzyl]-piperazine-1-carboxylic acid phenylamide] |  |
| 7.17 | O=C(Nc1ccccc1)N1CCN(Cc2cccc(Oc3ccc4c(c3)OCO4)c2)CC1 [Example 136, 4-[3-(Benzo[1,3]dioxol-5-yloxy)-benzyl]-piperazine-1-carboxylic acid phenylamide] |  |
| 7.48 | O=C(Nc1ccccc1)N1CCN(Cc2cccc(Oc3ccc4ccccc4c3)c2)CC1 [Example 131, 4-[3-(Naphthalen-2-yloxy)-benzyl]-piperazine-1-carboxylic acid phenylamide] |  |
| 6.62 | O=C(Nc1ccncc1)N1CCN(Cc2ccc(Br)c(Br)c2)CC1 [Example 116, 4-(3,4-Dibromo-benzyl)-piperazine-1-carboxylic acid pyridin-4-ylamide] |  |
| 6.62 | O=C(Nc1cccc(Cl)c1)N1CCN(Cc2ccc(Br)c(Br)c2)CC1 [Example 92, 4-(3,4-Dibromo-benzyl)-piperazine-1-carboxylic acid (3-chloro-phenyl)-amide] |  |
| 7.62 | Cc1cccc2cc(CN3CCN(C(=O)Nc4ccccc4)CC3)c(Cl)nc12 [Example 75, 4-(2-Chloro-8-methyl-quinolin-3-ylmethyl)-piperazine-1-carboxylic acid phenylamide] |  |
| 7.57 | O=C(Nc1cccnc1)N1CCN(Cc2ccc(Br)c(Br)c2)CC1 [Example 118, 4-(3,4-Dibromo-benzyl)-piperazine-1-carboxylic acid pyridin-3-ylamide] |  |
| 7.14 | O=C(Nc1ccccc1)N1CCN(Cc2cnc3ccccc3c2)CC1 [Example 23, 4-Quinolin-3-ylmethyl-piperazine-1-carboxylic acid phenylamide] |  |
| 5.22 | O=C(Nc1ccccc1)N1CCN(Cc2ccc(/C=C/c3ccccc3)cc2)CC1 [Example 81, 4-(4-Styryl-benzyl)-piperazine-1-carboxylic acid phenylamide] |  |
| 7.16 | O=C(Nc1ccccc1)N1CCN(Cc2ccc(Br)cc2)CC1 [Example 27, 4-(4-Bromo-benzyl)-piperazine-1-carboxylic acid phenylamide] |  |
| 7.21 | O=C(Nc1ccccc1F)N1CCN(Cc2cnc3ccccc3c2)CC1 [Example 112, 4-Quinolin-3-ylmethyl-piperazine-1-carboxylic acid (2-fluoro-phenyl)-amide] | pIC50 [2]: 6.43 |
| 6.96 | O=C(Nc1ccccc1)N1CCN(Cc2cccc(S(=O)(=O)c3ccc(Cl)cc3)c2)CC1 [Example 72, 4-[3-(4-Chloro-benzenesulfonyl)-benzyl]-piperazine-1-carboxylic acid phenylamide] |  |
| 5.80 | COc1ccc2cc(CN3CCN(C(=O)Nc4ccccc4)CC3)ccc2c1 [Example 66, 4-(6-Methoxy-naphthalen-2-ylmethyl)-piperazine-1-carboxylic acid phenylamide] |  |
| 6.92 | O=C(Nc1ccccc1)N1CCN(Cc2cccc(I)c2)CC1 [Example A, 4-(3-Iodo-benzyl)-piperazine-1-carboxylic acid phenylamide, reference compound] |  |
| 6.34 | O=C(Nc1ccccc1)N1CCN(Cc2ccc3c(c2)OCCO3)CC1 [Example 35, 4-(2,3-Dihydro-benzo[1,4]dioxin-6-ylmethyl)-piperazine-1-carboxylic acid phenylamide] |  |
| < 5.00 | O=C(Nc1ccccc1)N1CCN(CCc2ccccc2)CC1 [Example F, 4-Phenethyl-piperazine-1-carboxylic acid phenylamide, reference compound] |  |
| 5.30 | O=C(Nc1ccccc1)N1CCN(Cc2cccc(Oc3cc(Cl)cc(Cl)c3)c2)CC1 [Example 78, 4-[3-(3,5-Dichloro-phenoxy)-benzyl]-piperazine-1-carboxylic acid phenylamide] |  |

| SMILES | pIC50 [1] | other results |
| --- | --- | --- |
| O=C(Nc1ccccc1)N1CCN(Cc2ccc3ccccc3n2)CC1 [Example 19, 4-Quinolin-2-ylmethyl-piperazine-1-carboxylic acid phenylamide] | 7.72 | pIC50 [2]: 6.46 |
| O=C(Nc1ccccc1)N1CCN(Cc2ccc3ccc4cccc5ccc2c3c45)CC1 [Example 68, 4-Pyren-1-ylmethyl-piperazine-1-carboxylic acid phenylamide] | 7.02 | pIC50 [2]: 6.21 |
| CC(C)COc1cccc(CN2CCN(C(=O)Nc3ccccc3)CC2)c1 [Example 121, 4-(3-Isobutoxy-benzyl)-piperazine-1-carboxylic acid phenylamide] | 6.68 |  |
| CC(C)COc1ccc(CN2CCN(C(=O)Nc3ccccc3)CC2)cc1 [Example 124, 4-(4-Isobutoxy-benzyl)-piperazine-1-carboxylic acid phenylamide] | 5.74 |  |

— patent US9169224B2, “Piperazinyl and piperidinyl ureas as modulators of fatty acid amide hydrolase” (Janssen Pharmaceutica NV, priority 2004, dated 2015)
